For five compounds, IC50 and GI50 results are on record in patent US8507489B2, “Bicyclic triazoles as protein kinase modulators” (SGX Pharmaceuticals, Inc., priority 2006, dated 2013).

The target in assay [1] is c-MET (Homo sapiens, UniProt P08581). In words: MET luminescence-based enzyme assay (Kinase-Glo). The format is biochemical. On the procedure:
The subscript designates positive or negative controls. The Z′ score for a robust screening assay should be ≧0.50. The typical threshold=μ+−3*σ+. Any value that falls below the threshold was designated a “hit”.
MET Luminescence-Based Enzyme Assay
MET kinase (see below), Kinase-Glo™ (Promega Cat#V6712).
Negative controls contained 10 μM staurosporine.

The target in assay [2] is T1, TPR-MET Ba/F3 cells (Homo sapiens, UniProt P08581).
T1 construct: TPR-MET Ba/F3 cells were created by stably transducing the human TPR-MET gene into Ba/F3 cells using a retroviral system; fused on or other part: P12270 (Nucleoprotein TPR)
In words: 96-well XTT cell survival assay (Ba/F3 cells). The format is cell-based. As to conditions: cells marked (BaF3), 72 hours; read-out: XTT Assay IC50 (BaF3). Here is the method: TPR-MET Ba/F3 cells were created by stably transducing the human TPR-MET gene into Ba/F3 cells using a retroviral system. All cell lines were grown in RPMI-1640 supplemented with 1× penicillin/streptomycin and 10% fetal bovine (Invitrogen, Carlsbad, Calif.). The cells were maintained in a 5% CO2 humidified incubator at 37° C.
Compounds were tested in the following assays in duplicate.
96-well XTT assay (Ba/F3 cells): Cells were grown in growth media containing various concentrations of compounds (duplicates) on a 96-well plate for 72 hours at 37° C. The starting cell number was 5000-8000 cells per well and volume was 120 μl. At the end of the 72-hour incubation, 40 μl of XTT labeling mixture (50:1 solution of sodium 3′-[1-(phenylamino-carbonyl)-3,4-tetrazolium]-bis(4-methoxy-6-nitro) benzene sulfonic acid hydrate and Electron-coupling reagent: PMS (N-methyl dibenzopyrazine methyl sulfate) were added to each well of the plate. After an additional 2-6 hours of incubation at 37° C., the absorbance reading at 405 nm with background correction at 650 nm was measured with a spectrophotometer.

c-MET, sequence (P08581 1078-1345 limits assumed): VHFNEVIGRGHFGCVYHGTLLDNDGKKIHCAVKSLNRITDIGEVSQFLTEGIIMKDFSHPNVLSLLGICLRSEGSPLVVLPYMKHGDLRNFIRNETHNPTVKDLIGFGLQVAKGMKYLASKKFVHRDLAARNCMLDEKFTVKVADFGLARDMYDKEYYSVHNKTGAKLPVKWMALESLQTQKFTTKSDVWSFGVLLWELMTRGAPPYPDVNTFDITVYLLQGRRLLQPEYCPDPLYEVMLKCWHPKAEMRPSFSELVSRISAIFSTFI
T1 sequence (P08581 whole entry, change not shown, the tested form may be a part): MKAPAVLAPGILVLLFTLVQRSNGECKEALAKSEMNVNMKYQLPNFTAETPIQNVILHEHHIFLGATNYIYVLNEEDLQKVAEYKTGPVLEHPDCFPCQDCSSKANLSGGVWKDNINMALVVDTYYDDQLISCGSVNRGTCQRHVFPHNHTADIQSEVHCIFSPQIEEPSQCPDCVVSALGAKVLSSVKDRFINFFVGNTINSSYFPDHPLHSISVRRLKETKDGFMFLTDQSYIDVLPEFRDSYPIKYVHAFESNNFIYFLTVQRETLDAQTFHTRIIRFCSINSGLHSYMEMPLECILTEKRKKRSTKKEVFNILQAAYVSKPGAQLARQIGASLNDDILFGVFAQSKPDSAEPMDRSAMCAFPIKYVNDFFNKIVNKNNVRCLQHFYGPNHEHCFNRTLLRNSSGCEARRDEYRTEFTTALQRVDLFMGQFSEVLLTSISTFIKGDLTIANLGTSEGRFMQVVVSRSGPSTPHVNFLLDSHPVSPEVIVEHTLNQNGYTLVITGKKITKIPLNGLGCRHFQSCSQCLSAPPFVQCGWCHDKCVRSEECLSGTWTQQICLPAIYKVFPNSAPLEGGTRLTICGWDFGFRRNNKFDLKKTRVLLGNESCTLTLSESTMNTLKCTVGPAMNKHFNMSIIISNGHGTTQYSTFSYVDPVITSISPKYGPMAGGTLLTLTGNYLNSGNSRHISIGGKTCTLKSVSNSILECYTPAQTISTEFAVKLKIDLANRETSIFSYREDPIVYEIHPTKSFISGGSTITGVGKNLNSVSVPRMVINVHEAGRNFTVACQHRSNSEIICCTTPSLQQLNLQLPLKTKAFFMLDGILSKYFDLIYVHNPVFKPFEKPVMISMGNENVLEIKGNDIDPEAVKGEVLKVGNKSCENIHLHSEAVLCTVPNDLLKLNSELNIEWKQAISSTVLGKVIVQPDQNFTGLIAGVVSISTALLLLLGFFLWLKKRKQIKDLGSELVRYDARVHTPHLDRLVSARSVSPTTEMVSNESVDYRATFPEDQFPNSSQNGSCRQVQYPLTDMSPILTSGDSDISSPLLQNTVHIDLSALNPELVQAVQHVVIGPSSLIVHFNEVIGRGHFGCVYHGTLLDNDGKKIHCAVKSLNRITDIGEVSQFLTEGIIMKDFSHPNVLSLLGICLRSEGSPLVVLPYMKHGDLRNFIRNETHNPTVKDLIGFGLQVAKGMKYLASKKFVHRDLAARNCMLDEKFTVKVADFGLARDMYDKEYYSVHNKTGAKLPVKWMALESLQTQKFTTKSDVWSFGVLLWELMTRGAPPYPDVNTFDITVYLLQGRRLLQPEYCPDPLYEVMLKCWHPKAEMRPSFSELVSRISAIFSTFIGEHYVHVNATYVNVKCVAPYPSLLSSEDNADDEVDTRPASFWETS

In turn, `N#Cc1cccc(-c2ccc3nnc(Sc4ccc5ncsc5c4)n3n2)c1` [Compound 22, 3-[3-(Benzothiazol-6-ylsulfanyl)-[1,2,4]triazolo[4,3-b]pyridazin-6-yl]-benzonitrile] came in with an IC50 in assay [1] of less than 100 nM. Besides, the GI50 in assay [2] lay in the range of 100 to 1000 nM.
Taken in the same sequence, the figures for `CNC(=O)c1ccc(-c2ccc3nnc(Sc4ccc5ncn(C)c5c4)n3n2)cc1F` [Compound 19, 2-Fluoro-N-methyl-4-[3-(3-methyl-3H-benzoimidazol-5-ylsulfanyl)-[1,2,4]triazolo[4,3-b]pyridazin-6-yl]-benzamide] were less than 100 nM and not above 100 nM.
Taken in the same sequence, the figures for `N#Cc1cccc(-c2ccc3nnc(Sc4cc5cccnc5cc4F)n3n2)c1` [Compound 23, 3-[3-(7-Fluoro-quinolin-6-ylsulfanyl)-[1,2,4]triazolo[4,3-b]pyridazin-6-yl]-benzonitrile] were less than 100 nM and not above 100 nM.
Taken in the same sequence, the figures for `CNC(=O)c1ccc(-c2ccc3nnc(Sc4cc5scnc5cc4F)n3n2)cc1F` [Compound 20] were less than 100 nM and not above 100 nM.
As for `N#Cc1cccc(-c2ccc3nnc(Sc4ccc5ncccc5c4)n3n2)c1` [Compound 21, 3-[3-(Quinolin-6-ylsulfanyl)-[1,2,4]triazolo[4,3-b]pyridazin-6-yl]-benzonitrile], the IC50 in assay [1] was less than 100 nM. Further, the GI50 in assay [2] is not above 100 nM.
